{"source": "patent US8114638B2", "about": "“Arabinitol dehydrogenase from Neurospora crassa” (The Board of Trustees of the University of Illinois, priority 2007, dated 2012)", "key": {"N. crassa LAD [1]": {"molecular_target": "T1, N. crassa LAD (Neurospora crassa, UniProt Q7SI09)", "details": "for % Activity: relative to L-arabinitol = 100, 50 mM Tris pH 8.0, saturated NAD+", "procedure": "(§1) Initial rates were determined using a Varian Cary 100 Bio UV-visible spectrophotometer (Varian) at 25° C. in 50 mM Tris (pH 8.0). […] Kinetic measurements with substrate L-arabinitol and cofactor NAD^+ were taken in a 5-by-5 matrix format, with substrate and cofactor concentrations varied from below their Km to 10-fold higher than their Km. The kinetic data were analyzed with a modified version of Cleland's program (Cleland, W. W. (1979) Statistical analysis of enzyme kinetic data, Methods Enzymol 63, 103-138.). Vmax and Km for both L-arabinitol and NAD^+ were obtained by fitting the data to a sequential ordered mechanism with NAD^+ binding first, based on the proposed mechanism for sorbitol dehydrogenase (Lindstad et al. (1992) The kinetic mechanism of sheep liver sorbitol dehydrogenase, Eur J Biochem 210, 641-647.) v=VmaxAB/(KiaKB+KAB+KBA+AB) (EQ. 1)\nwhere v is the initial velocity, Vmax is the maximum velocity, KA and KB are the Michaelis-Menten constants for NAD+ and L-arabinitol, respectively, A and B are the concentrations of NAD+ and L-arabinitol, respectively, and Kia is the dissociation constant for NAD+.\nKinetics. The data were used to calculate the kinetic constants for various substrates by fitting the Michaelis-Menten equation using Origin 5.0. […] The data represent averages of assays performed in duplicate or triplicate on two separate occasions."}, "N. crassa LAD [2]": {"molecular_target": "T1, N. crassa LAD", "assay": "Cofactor specificity of N. crassa LAD by HPLC", "format": "biochemical", "parameters": "GST (glutathione S-transferase), with thrombin cleavage site (N, cleaved yes); made in house; host or cells: Escherichia coli BL21(DE3), vector pGEX-4T-3 (pGEX-lad1)", "details": "1 mM NAD(P)+, 25 mM L-arabinitol, 50 mM Tris pH 8.0, 20 min at 37° C., UV 340 nm", "procedure": "The cofactor specificity of N. crassa LAD was examined by HPLC. The separation of NAD+, NADP+, NADH, and NADPH was carried out using standard methods. No discernible cross-contamination of oxidized cofactors was observed. 20 μL reaction mixtures consisting of equal parts of 1 mM NAD(P)+ and 25 mM L-arabinitol in 50 mM Tris (pH 8.0) were set up, and following addition of approximately 1 μg of enzyme, the reaction was allowed to proceed for 20 min at 37° C. […] This indicated the strong preference for NAD+ as the cofactor of N. crassa LAD.\nHPLC analysis. The enzyme (1 μg) was incubated in a mixture of buffer and 25 mM L-arabinitol with 1 mM NAD(P)+ at 37° C. for 20 min. The sample was eluted on a Zorbax 3.0×150 mm C-18 (3.5 μm) column with a UV detector (Agilent 1100 series). The eluent consisted of two components: 0.1 M KH2PO4 containing 5 mM tetrabutylammonium hydrogen sulfate (pH 5.5) (buffer A) and 100% methanol (buffer B). The most suitable gradient was an initial isocratic step for 6 min at 93% buffer A, a gradient for 5 min from 7 to 30% buffer B, and a final isocratic step for 5 min at 30% buffer B."}, "[3]": {"details": "4° C. and freeze-thawing; cited from earlier work"}, "[4]": {"details": "LADs of other organisms, from references, cited from earlier work"}, "[5]": {"assay": "Kinetic parameters of LAD from various source organisms", "format": "biochemical", "details": "greater", "procedure": "as §1"}, "[6]": {"details": "with indicated substrate, 25° C., 50 mM Tris pH 8.0, saturated NAD+ (2 mM)"}}, "note": "Like-named read-outs stand apart in the source and are kept apart here. Marks after values point to notes of the source that are not given here."}
{"compound": "OC[C@@H](O)[C@@H](O)[C@@H](O)CO", "note": "[Adonitol, adonitol]", "values": [{"measurement": "Km", "setting": "N. crassa LAD [1]; read-out: Km (mean ± SD), with indicated substrate, 25° C., 50 mM Tris pH 8.0, saturated NAD+ (2 mM)", "result": "35 ± 3", "unit": "mM"}, {"measurement": "% Activity", "setting": "N. crassa LAD [1]; 25° C.", "result": 46, "unit": "%"}, {"measurement": "kcat (mean ± SD)", "setting": "N. crassa LAD [1]; [6]", "result": "1,080 ± 30 min^−1"}]}
{"compound": "OC[C@@H](O)C(O)[C@H](O)CO", "note": "[D-Arabinitol, D-arabinitol]", "values": [{"measurement": "activity as substrate or cofactor of N. crassa LAD (in words)", "setting": "N. crassa LAD [1]", "result": "No activity was observed"}, {"measurement": "% Activity", "setting": "N. crassa LAD [1]; 25° C.", "result": 0, "unit": "%"}]}
{"compound": "OC[C@@H](O)[C@@H](O)[C@H](O)[C@H](O)CO", "note": "[D-Mannitol, D-mannitol]", "values": [{"measurement": "activity as substrate or cofactor of N. crassa LAD (in words)", "setting": "N. crassa LAD [1]", "result": "No activity was observed"}, {"measurement": "% Activity", "setting": "N. crassa LAD [1]; 25° C.", "result": 0, "unit": "%"}]}
{"compound": "OC[C@@H](O)[C@@H](O)[C@H](O)[C@@H](O)CO", "note": "[D-Sorbitol, D-sorbitol]", "values": [{"measurement": "activity as substrate or cofactor of N. crassa LAD (in words)", "setting": "N. crassa LAD [1]", "result": "No activity was observed"}, {"measurement": "% Activity", "setting": "N. crassa LAD [1]; 25° C.", "result": "0^c %"}]}
{"compound": "OC[C@H](O)C(O)[C@@H](O)CO", "note": "[L-Arabinitol, L-arabinitol]", "values": [{"measurement": "Km", "setting": "N. crassa LAD [1]; read-out: Km value for substrate", "result": 16, "unit": "mM"}, {"measurement": "% Activity", "setting": "N. crassa LAD [1]; 25° C.", "result": 100, "unit": "%"}]}
{"compound": "NC(=O)c1ccc[n+]([C@@H]2O[C@H](COP(=O)([O-])OP(=O)(O)OC[C@H]3O[C@@H](n4cnc5c(N)ncnc54)[C@H](O)[C@@H]3O)[C@@H](O)[C@H]2O)c1", "note": "[NAD, NAD+]", "values": [{"measurement": "Km", "setting": "N. crassa LAD [1]; read-out: Km for L-arabinitol (mean ± SD), with indicated coenzyme, 25° C., 50 mM Tris pH 8.0", "result": "16 ± 3", "unit": "mM"}, {"measurement": "Km", "setting": "N. crassa LAD [1]; read-out: Km for NAD(P) (mean ± SD), 25° C., 50 mM Tris pH 8.0, substrate L-arabinitol", "result": 0.174, "unit": "mM"}, {"measurement": "kcat (mean ± SD)", "setting": "N. crassa LAD [1]; with indicated coenzyme, 25° C., 50 mM Tris pH 8.0, substrate L-arabinitol", "result": "1,206 ± 54 min^−1"}, {"measurement": "reduced cofactor peak by HPLC (in words)", "setting": "N. crassa LAD [2]", "result": "a single peak (UV 340 nm) was observed that had the same retention time as authentic NADH"}]}
{"compound": "NC(=O)c1ccc[n+]([C@@H]2O[C@H](COP(=O)([O-])OP(=O)(O)OC[C@H]3O[C@@H](n4cnc5c(N)ncnc54)[C@H](OP(=O)(O)O)[C@@H]3O)[C@@H](O)[C@H]2O)c1", "note": "[NADP, NADP+]", "values": [{"measurement": "activity as substrate or cofactor of N. crassa LAD (in words)", "setting": "N. crassa LAD [1]; listed as NADP+", "result": "small yet detectable activity"}, {"measurement": "activity as substrate or cofactor of N. crassa LAD (in words)", "setting": "N. crassa LAD [1]; listed as NADP^+", "result": "very low yet detectable activity"}, {"measurement": "reduced cofactor peak by HPLC (in words)", "setting": "N. crassa LAD [2]", "result": "a small yet detectable peak was observed with a retention time corresponding to an authentic sample of NADPH"}]}
{"compound": "OC[C@@H](O)[C@H](O)[C@@H](O)CO", "note": "[Xylitol, xylitol]", "values": [{"measurement": "% Activity", "setting": "N. crassa LAD [1]; 25° C.", "result": 4.9, "unit": "%"}, {"measurement": "kcat (mean ± SD)", "setting": "N. crassa LAD [1]; [6]", "result": "970 ± 40", "unit": "min⁻¹"}]}
{"compound": "A. niger: L-arabinitol 4-dehydrogenase from Aspergillus niger (literature)", "values": [{"measurement": "stability of purified enzyme as reported (in words)", "setting": "[3]", "result": "highly unstable, with rapidly diminishing activity at 4° C., and complete loss of activity after freeze-thawing of the enzyme"}, {"measurement": "Specific activity", "setting": "[4]", "result": 96, "unit": "U/mg"}, {"measurement": "Km", "setting": "[4]; read-out: Km,L-arabinitol", "result": 89000, "unit": "µM"}, {"measurement": "Km", "setting": "[4]; read-out: Km,NAD+", "result": 50, "unit": "µM"}, {"measurement": "specific activity relative to N. crassa LAD", "setting": "[5]", "result": "about 3 fold"}]}
{"compound": "A. oryzae: L-arabinitol 4-dehydrogenase from Aspergillus oryzae (literature)", "values": [{"measurement": "Specific activity", "setting": "[4]", "result": 0.04, "unit": "U/mg"}]}
{"compound": "H. jecorina: L-arabinitol 4-dehydrogenase from Hypocrea jecorina (literature; two table lines from different references)", "values": [{"measurement": "kcat", "setting": "[4]", "result": 51, "unit": "min⁻¹"}, {"measurement": "Km", "setting": "[4]; read-out: Km,NAD+", "result": 180, "unit": "µM"}]}
